In patent US11724998B2, “PXR agonists and uses thereof for gut barrier dysfunction treatment and prevention” (Albert Einstein College of Medicine, priority 2017, dated 2023):
Entries after “also recorded” stand apart in the source; their conditions may differ.

Columns and labels:
PXR LBD = target: T1, PXR LBD (Homo sapiens, UniProt O75469); assay: One-hybrid PXR LBD reporter gene assay in Caco-2 cells; type: cell-based; conditions: 24 h exposure, FIG. 3
T1 construct: validated using a one-hybrid PXR LBD reporter assay; expressed in transfected cells; host or cells: Caco-2
T1 sequence (O75469 146-433 limits assumed): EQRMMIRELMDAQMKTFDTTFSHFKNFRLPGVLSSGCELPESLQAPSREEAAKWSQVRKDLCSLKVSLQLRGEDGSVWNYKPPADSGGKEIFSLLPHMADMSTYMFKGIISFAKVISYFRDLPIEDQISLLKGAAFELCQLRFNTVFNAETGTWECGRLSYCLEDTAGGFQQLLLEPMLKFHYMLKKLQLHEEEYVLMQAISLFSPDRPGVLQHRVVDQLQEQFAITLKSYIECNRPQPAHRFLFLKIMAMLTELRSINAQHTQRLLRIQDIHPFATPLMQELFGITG
Method: FIG. 3. One-hybrid PXR reporter gene assay. Performed in Caco-2 cells as a 24 h exposure to FKK5 at two different concentrations.

[1] = tested on: CAR, constitutive androstane receptor; assay: Nuclear receptor transactivation assay in Caco-2 cells (CAR); type: cell-based; conditions: FIG. 4
Method: (§1) FIG. 4. Nuclear Receptor transactivation assays in caco-2 (day 0) cells. Methods used are published (33). Assays were performed at least two times in triplicate CAR, constitutive androstane receptor; TCBOPOP, CAR ligand; LXR, Liver X receptor; T0901315, LXR ligand. n.s, not significant.
(§2) IPA/Indoles can have weak (˜2 fold) but important effects on the activation of other nuclear receptors (e.g., CAR, LXR) (33). […] Some receptors, specifically CAR and LXR, can act to induce liver steatosis (79, 83-86) and hepatocarcinogenesis (CAR) (80, 84, 87-89) and thus, avoiding excessive activation of these nuclear receptors in the context of PXR activation would be important. […] CDK5 (along with CDK2) are important kinases that phosphorylate and inhibit PXR activation (90). Accordingly, based on the data, it is unlikely that FKK5 activates PXR via inhibition of CDK5.

LXR, Liver X receptor = assay: Nuclear receptor transactivation assay in Caco-2 cells (LXR); type: cell-based; conditions: FIG. 4
Method: as §1, §2

plated hepatocytes = assay: LDH release assay in plated hepatocytes; type: cell-based; conditions: 24 h and 48 h exposure; FIG. 1
Method: FIG. 1A-1B. FKK compound cytotoxicity assay. (A) MTT cell cytotoxicity assay in LS180 cells lines (NCBI Bookshelf: world wide web ncbi.nlm.nih.gov/books/NBK144065/). […] (B) LDH release assay performed in plated hepatocytes after a 24 h and 48 h exposure. For both panels, assays were performed at least two times in triplicate.
A very unique feature of simple indole structures (FKK1-10) is that they are predicted to have very short systemic residence times limiting systemic drug exposure and any potential for off-target effects in organs other than the intestines (78).

PXR = target: T2, PXR (Homo sapiens, UniProt O75469); assay: Isothermic titration calorimetry (ITC); type: binding; conditions: FIG. 11
T2 sequence (O75469 1-434): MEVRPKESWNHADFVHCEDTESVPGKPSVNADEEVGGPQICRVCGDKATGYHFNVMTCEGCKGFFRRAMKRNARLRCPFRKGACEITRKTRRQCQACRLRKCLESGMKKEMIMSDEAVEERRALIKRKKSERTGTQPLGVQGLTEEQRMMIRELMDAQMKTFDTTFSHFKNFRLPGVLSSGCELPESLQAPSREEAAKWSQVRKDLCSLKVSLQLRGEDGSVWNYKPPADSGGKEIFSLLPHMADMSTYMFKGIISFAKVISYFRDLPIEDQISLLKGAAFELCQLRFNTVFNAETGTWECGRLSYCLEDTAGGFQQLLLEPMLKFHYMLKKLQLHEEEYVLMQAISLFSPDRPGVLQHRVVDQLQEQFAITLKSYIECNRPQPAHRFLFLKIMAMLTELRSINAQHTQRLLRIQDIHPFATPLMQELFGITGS

IL-8 = assay: TNF-induced IL-8 in human intestinal organoids; type: cell-based; conditions: initial experiment n=2, FIG. 12
Description: Intestinal organoids were developed using human small intestines and stem cell isolation and propagation in vitro.

activation of PXR (PXR LBD): ~5 fold
binding to human PXR (PXR): efficient and direct binding
SMILES: O=C(c1ccncc1)c1cc2ccccc2n1S(=O)(=O)c1ccccc1 [FKK5]
CAR activation [1]: does not activate
CAR function with increasing concentrations [1]: CAR function is inhibited
LXR activation (LXR, Liver X receptor): does not activate
cytotoxicity in hepatocytes (plated hepatocytes): no cytotoxicity observed
TNF-induced IL-8 expression (IL-8): significant attenuation; also recorded: reduces pro-inflammatory cytokine IL-8 expression
